From patent US20220389515A1, “USE OF BIOMARKERS TO PREDICT CLINICAL SENSITIVITY TO 2-(4-CHLOROPHENYL)-N-((2-(2,6-DIOXOPIPERIDIN-3-YL)-1-OXOISOINDOLIN-5-YL)METHYL)-2,2-DIFLUOROACETAMIDE” (priority 2019, published 2022)

How the values were obtained:
Type in all cases: cell-based, human
[1] = system: U937, OCI-AML2 and MOLM-13; experiment: Cell proliferation of parental, CRBN-ablated and GSPT1-G575N expressing AML cells
Experimental: FIG. 2A illustrates the volcano plot of differentially abundant proteins in response to Compound D treatment relative to the DMSO control. KG1 cells were treated with DMSO or 100 nM Compound D for 4 hours and subjected to TMT proteomics analysis. The X-axis denotes the log 2-fold change of Compound D versus the DMSO control for each protein. P-values were corrected for multiple hypothesis testing using the Benjamini-Hoschberg method to arrive at an adjusted-P-value (adj-P, also known as a false discovery rate). The y-axis denotes the −log 10 (adj-P) values indicating statistical significance such that proteins lying above the dotted red line are statistically significant findings with adjusted P-values<0.05. FIG. 2B illustrates the immunoblot analysis of KG1 and U937 cells treated with DMSO or Compound D for 4 hours. Where indicated, cells were pretreated with Bortezomib or MLN4924 for 30 minutes. […]
For cell proliferation assays, human cancer cell lines cultured in the growth medium recommended by the vendor (as described above) were seeded into black 384-well plates containing DMSO or test compounds. […] After 72 hours, cell proliferation was assessed using the CTG assay according to the manufacturer's instructions. […]

GCN2-mediated ISR = experiment: Immunoblot analysis of integrated stress response and apoptosis markers
Experimental: The U937 GCN2−/− cell line is derived from a single clone of U937 parental cells stably infected with a lentiviral CRISPR vector targeting GCN2. […] Cells were incubated with DMSO or 200 nM Compound D and lysed at the indicated time points. Arrows pointing to bands in the blot on the right designate the cleaved forms of caspase-3. […] The U937 GCN2−/− cell line is derived from a single clone of U937 parental cells stably infected with a lentiviral CRISPR vector targeting GCN2. […] Cells were treated with DMSO or Compound D for 24 hours. On day 3 after Compound D treatment, cell proliferation was assessed by CTG. Result shown in all figure panels is representative of at least three biological replicates. Data in FIGS. 13C, 13D and 13E are shown as mean±SD, n=3 technical replicates.
To determine if the activation of the ISR by Compound D is solely mediated by GCN2, the effect of GCN2 ablation on Compound D response was evaluated.

U937 Cas9 cell lines = experiment: Cell proliferation assay (CTG, 5 days) in U937 cells after RNP electroporation knockout
Source text: Next, the roles of additional negative regulators of mTOR were studied. To knockout the studied genes, an electroporation-based method was used where a ribonucleoprotein (RNP) consisting of the Cas9 protein and gene-targeting gRNA was directly delivered to the U937 cells. A crRNA-tracrRNA duplex was first prepared consisting of the crRNA with a 20 nt sequence specific to each target gene and the universal tracrRNA to guide the Cas9 nuclease to the genomic locus. The sgRNA sequences targeting CRBN, ATF4, GCN1, GCN2, DDIT4, TSC1, TSC2, or non-targeting (NT-1) and non-coding (NC-8) controls were selected from the Cellecta sgRNA library. After pre-coupling the Cas9 enzyme to the crRNA-tracrRNA duplex, the complex was mixed with one million U937 cells per sample in nucleofection solution (4D-Nucleofector X kit SE; Lonza). Cells were electroporated in a 4D nucleofector according to the manufacturer's instructions and plated into complete cell culture media.
Then a cell proliferation assay was performed. Compound D dissolved in DMSO was injected into 96-well cell culture plates using a HP D300 digital dispenser in triplicate for each final Compound D concentration. […] After 5 days, cell proliferation was assessed using CTG (CellTiter-Glo) according to the manufacturer's instructions to assess the effects of Compound D on proliferation of each cell line.

SMILES: O=C1CCC(N2Cc3cc(CNC(=O)C(F)(F)c4ccc(Cl)cc4)ccc3C2=O)C(=O)N1 (stereo not shown) [Compound D, 2-(4-chlorophenyl)-N-((2-(2,6-dioxopiperidin-3-yl)-1-oxoisoindolin-5-yl)methyl)-2,2-difluoroacetamide]
- anti-proliferative effect after ablation of CRBN ([1]; CRBN knockout U937, OCI-AML2, MOLM-13): completely abolished the anti-proliferative effect
- antiproliferative response in cells overexpressing GSPT1-G575N ([1]; U937, OCI-AML2, MOLM-13, GSPT1 stabilization): completely inhibited the response to Compound D
- activation of the ISR (eIF2a phosphorylation, ATF4 and targets) (GCN2-mediated ISR; U937 24 hours, KG-1 200 nM): triggered the rapid phosphorylation of eIF2a, accumulation of ATF4 and its transcriptional targets DDIT4, CHOP and ATF3
- apoptosis (cleaved caspase-3) (GCN2-mediated ISR; U937, KG-1 200 nM): subsequent induction of apoptosis
- ISR activation and caspase-3 cleavage after GCN2 knockout (GCN2-mediated ISR; U937 GCN2-/-, 24 hours): inhibited the phosphorylation of eIF2a, induction of ATF4 and its target gene DDIT4, and the cleavage of caspase-3
- anti-proliferative effects after depletion of GCN2, ATF4, GCN1, CRBN, DDIT4, TSC1, TSC2 (U937 Cas9 cell lines; U937): diminished this effect
- anti-proliferative effects in control cells (U937 Cas9 cell lines; U937 parental and non-coding (NC-8) controls): dose-dependent anti-proliferative effects
